Data taken from US20230279025A1, “KRAS G12D INHIBITORS” (Mirati Therapeutics, Inc., priority 2020, published 2023).

Molecular target: KRas G12D (Homo sapiens (Human), UniProt P01116, G12D)
Test: KRas G12D Binding Assay (TR-FRET displacement of Cy5 labelled tracer)
Settings: GDP-loaded KRAS G12D (amino acids 1:169), 60 minute incubation at 22° C.
Description: After a 60 minute incubation at 22° C., the reaction was measured using a PerkinElmer EnVision multimode plate reader via TR-FRET dual wavelength detection, and the percent of control (POC) calculated using a ratiometric emission factor. […] The POC values were fit to a 4-parameter logistic curve and the IC50 value was determined as the concentration where the curve crosses 50 POC.
ND stands for “not determined.”

Chain of KRas G12D (P01116 other isoform, or with tags, fused parts or gaps G12D): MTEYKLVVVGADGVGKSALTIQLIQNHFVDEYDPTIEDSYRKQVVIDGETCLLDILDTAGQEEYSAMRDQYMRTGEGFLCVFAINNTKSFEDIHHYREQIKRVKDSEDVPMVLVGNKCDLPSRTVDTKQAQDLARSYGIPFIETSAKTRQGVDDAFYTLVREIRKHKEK

Question: With CCc1ccc(O)cc1-c1ncc2c(N3C[C@H]4CC[C@@H](C3)N4)nc(OCC34CCCN3CCC4)nc2c1F [Example 263, 3-(4-((1R,5S)-3,8-diazabicyclo[3.2.1]octan-3-yl)-8-fluoro-2-((hexahydro-1H-pyrrolizin-7a-yl)methoxy)pyrido[4,3-d]pyrimidin-7-yl)-4-ethylphenol] as the compound, how does the IC50 read?
Answer: 1.5 nM

Question: With Fc1ccccc1-c1ncc2c(N3C[C@H]4CC[C@@H](C3)N4)nc(OCC34CCCN3CCC4)nc2c1F [Example 264, 4-((1R,5S)-3,8-diazabicyclo[3.2.1]octan-3-yl)-8-fluoro-7-(2-fluorophenyl)-2-((hexahydro-1H-pyrrolizin-7a-yl)methoxy)pyrido[4,3-d]pyrimidine] as the compound, how does the IC50 read?
Answer: 4700 nM

Question: For Nc1cccc(F)c1-c1ncc2c(N3C[C@H]4CC[C@@H](C3)N4)nc(OCC34CCCN3CCC4)nc2c1F [Example 265, 2-(4-((1R,5S)-3,8-diazabicyclo[3.2.1]octan-3-yl)-8-fluoro-2-((hexahydro-1H-pyrrolizin-7a-yl)methoxy)pyrido[4,3-d]pyrimidin-7-yl)-3-fluoroaniline], which IC50 is on record?
Answer: 794 nM

Question: Nc1c(Cl)cc(Cl)c(F)c1-c1ncc2c(N3C[C@H]4CC[C@@H](C3)N4)nc(OCC34CCCN3CCC4)nc2c1F [Example 266, 2-(4-((1R,5S)-3,8-diazabicyclo[3.2.1]octan-3-yl)-8-fluoro-2-((hexahydro-1H-pyrrolizin-7a-yl)methoxy)pyrido[4,3-d]pyrimidin-7-yl)-4,6-dichloro-3-fluoroaniline] was tested. Which IC50 did it give?
Answer: 278 nM

Question: Oc1ccccc1-c1ncc2c(N3C[C@H]4CC[C@@H](C3)N4)nc(OCC34CCCN3CCC4)nc2c1F [Example 267, 2-(4-((1R,5S)-3,8-diazabicyclo[3.2.1]octan-3-yl)-8-fluoro-2-((hexahydro-1H-pyrrolizin-7a-yl)methoxy)pyrido[4,3-d]pyrimidin-7-yl)phenol] was tested. Which IC50 did it give?
Answer: 3260 nM

Question: For CNc1c(F)cccc1-c1ncc2c(N3C[C@H]4CC[C@@H](C3)N4)nc(OCC34CCCN3CCC4)nc2c1F [Example 268, 2-(4-((1R,5S)-3,8-diazabicyclo[3.2.1]octan-3-yl)-8-fluoro-2-((hexahydro-1H-pyrrolizin-7a-yl)methoxy)pyrido[4,3-d]pyrimidin-7-yl)-6-fluoro-N-methylaniline], which IC50 is on record?
Answer: 1550 nM

Question: With CCNc1c(F)cccc1-c1ncc2c(N3C[C@H]4CC[C@@H](C3)N4)nc(OCC34CCCN3CCC4)nc2c1F [Example 269, 2-(4-((1R,5S)-3,8-diazabicyclo[3.2.1]octan-3-yl)-8-fluoro-2-((hexahydro-1H-pyrrolizin-7a-yl)methoxy)pyrido[4,3-d]pyrimidin-7-yl)-N-ethyl-6-fluoroaniline] as the compound, how does the IC50 read?
Answer: 4040 nM

Question: How did the IC50 turn out when Oc1cccc(-c2ncc3c(N4C[C@H]5CC[C@@H](C4)N5)nc(OCC45CCCN4CCC5)nc3c2F)c1 [Example 271, 3-(4-((1R,5S)-3,8-diazabicyclo[3.2.1]octan-3-yl)-8-fluoro-2-((hexahydro-1H-pyrrolizin-7a-yl)methoxy)pyrido[4,3-d]pyrimidin-7-yl)phenol] was run?
Answer: 1620 nM

Question: Cc1ccccc1-c1ncc2c(N3C[C@H]4CC[C@@H](C3)N4)nc(OCC34CCCN3CCC4)nc2c1F [Example 272, 4-((1R,5S)-3,8-diazabicyclo[3.2.1]octan-3-yl)-8-fluoro-2-((hexahydro-1H-pyrrolizin-7a-yl)methoxy)-7-(o-tolyl)pyrido[4,3-d]pyrimidine] was tested. Which IC50 did it give?
Answer: 1180 nM

Question: With COc1ccccc1-c1ncc2c(N3C[C@H]4CC[C@@H](C3)N4)nc(OCC34CCCN3CCC4)nc2c1F [Example 273, 4-((1R,5S)-3,8-diazabicyclo[3.2.1]octan-3-yl)-8-fluoro-2-((hexahydro-1H-pyrrolizin-7a-yl)methoxy)-7-(2-methoxyphenyl)pyrido[4,3-d]pyrimidine] as the compound, how does the IC50 read?
Answer: 1340 nM

Question: For Cc1c(Cl)cccc1-c1ncc2c(N3C[C@H]4CC[C@@H](C3)N4)nc(OCC34CCCN3CCC4)nc2c1F [Example 274, 4-((1R,5S)-3,8-diazabicyclo[3.2.1]octan-3-yl)-7-(3-chloro-2-methylphenyl)-8-fluoro-2-((hexahydro-1H-pyrrolizin-7a-yl)methoxy)pyrido[4,3-d]pyrimidine], which IC50 is on record?
Answer: 35.9 nM

Question: For Cc1cccc(-c2ncc3c(N4C[C@H]5CC[C@@H](C4)N5)nc(OCC45CCCN4CCC5)nc3c2F)c1C [Example 275, 4-((1R,5S)-3,8-diazabicyclo[3.2.1]octan-3-yl)-7-(2,3-dimethylphenyl)-8-fluoro-2-((hexahydro-1H-pyrrolizin-7a-yl)methoxy)pyrido[4,3-d]pyrimidine], which IC50 is on record?
Answer: 53.8 nM

Question: Which IC50 does the source give for Cc1cccc(-c2ncc3c(N4C[C@H]5CC[C@@H](C4)N5)nc(OCC45CCCN4CCC5)nc3c2F)c1Cl [Example 276, 4-((1R,5S)-3,8-diazabicyclo[3.2.1]octan-3-yl)-7-(2-chloro-3-methylphenyl)-8-fluoro-2-((hexahydro-1H-pyrrolizin-7a-yl)methoxy)pyrido[4,3-d]pyrimidine] here?
Answer: 16.2 nM

Question: Fc1c(-c2cccc(Cl)c2Cl)ncc2c(N3C[C@H]4CC[C@@H](C3)N4)nc(OCC34CCCN3CCC4)nc12 [Example 277, 4-((1R,5S)-3,8-diazabicyclo[3.2.1]octan-3-yl)-7-(2,3-dichlorophenyl)-8-fluoro-2-((hexahydro-1H-pyrrolizin-7a-yl)methoxy)pyrido[4,3-d]pyrimidine] was tested. Which IC50 did it give?
Answer: 35.2 nM

Question: For C#CCc1ccc(O)cc1-c1ncc2c(N3C[C@H]4CC[C@@H](C3)N4)nc(OCC34CCCN3CCC4)nc2c1F [Example 279, 3-(4-((1R,5S)-3,8-diazabicyclo[3.2.1]octan-3-yl)-8-fluoro-2-((hexahydro-1H-pyrrolizin-7a-yl)methoxy)pyrido[4,3-d]pyrimidin-7-yl)-4-(prop-2-yn-1-yl)phenol], which IC50 is on record?
Answer: 1.6 nM

Question: COCCNC(=O)O[C@@H]1C[C@@H](COc2nc(N3C[C@H]4CC[C@@H](C3)N4)c3cnc(-c4cccc5cccc(Cl)c45)c(F)c3n2)N(C)C1 [Example 280, (3R,5S)-5-(((4-((1R,5S)-3,8-diazabicyclo[3.2.1]octan-3-yl)-7-(8-chloronaphthalen-1-yl)-8-fluoropyrido[4,3-d]pyrimidin-2-yl)oxy)methyl)-1-methylpyrrolidin-3-yl (2-methoxyethyl)carbamate] was tested. Which IC50 did it give?
Answer: 99.8 nM

Question: C#Cc1c(F)ccc2cccc(-c3ncc4c(N5C[C@H]6CC[C@@H](C5)N6)nc(OC[C@@]56CCCN5C[C@H](F)C6)nc4c3F)c12 [Example 281, 4-((1R,5S)-3,8-diazabicyclo[3.2.1]octan-3-yl)-7-(8-ethynyl-7-fluoronaphthalen-1-yl)-8-fluoro-2-(((2R,7aS)-2-fluorohexahydro-1H-pyrrolizin-7a-yl)methoxy)pyrido[4,3-d]pyrimidine] was tested. Which IC50 did it give?
Answer: 0.9 nM

Question: Oc1cc(-c2ncc3c(N4C[C@H]5CC[C@@H](C4)N5)nc(OC[C@@]45CCCN4C[C@H](F)C5)nc3c2F)c2c(F)cccc2c1 [Example 282, 4-(4-((1R,5S)-3,8-diazabicyclo[3.2.1]octan-3-yl)-8-fluoro-2-(((2R,7aS)-2-fluorohexahydro-1H-pyrrolizin-7a-yl)methoxy)pyrido[4,3-d]pyrimidin-7-yl)-5-fluoronaphthalen-2-ol] was tested. Which IC50 did it give?
Answer: 0.7 nM

Question: How did the IC50 turn out when Oc1cc(Cl)c(C2CC2)c(-c2ncc3c(N4C[C@H]5CC[C@@H](C4)N5)nc(OC[C@@]45CCCN4C[C@H](F)C5)nc3c2F)c1 [Example 283, 3-(4-((1R,5S)-3,8-diazabicyclo[3.2.1]octan-3-yl)-8-fluoro-2-(((2R,7aS)-2-fluorohexahydro-1H-pyrrolizin-7a-yl)methoxy)pyrido[4,3-d]pyrimidin-7-yl)-5-chloro-4-cyclopropylphenol] was run?
Answer: 0.7 nM

Question: For Oc1cc(Cl)c(C(F)(F)F)c(-c2ncc3c(N4C[C@H]5CC[C@@H](C4)N5)nc(OC[C@@]45CCCN4C[C@H](F)C5)nc3c2F)c1 [Example 284, 3-(4-((1R,5S)-3,8-diazabicyclo[3.2.1]octan-3-yl)-8-fluoro-2-(((2R,7aS)-2-fluorohexahydro-1H-pyrrolizin-7a-yl)methoxy)pyrido[4,3-d]pyrimidin-7-yl)-5-chloro-4-(trifluoromethyl)phenol], which IC50 is on record?
Answer: 0.1 nM

Question: With C[C@@H]1C[C@@H]1c1ccccc1-c1ncc2c(N3C[C@H]4CC[C@@H](C3)N4)nc(OCC34CCCN3CCC4)nc2c1F [Example 286, 4-((1R,5S)-3,8-diazabicyclo[3.2.1]octan-3-yl)-8-fluoro-2-((hexahydro-1H-pyrrolizin-7a-yl)methoxy)-7-(2-((S,2R)-2-methylcyclopropyl)phenyl)pyrido[4,3-d]pyrimidine] as the compound, how does the IC50 read?
Answer: 17.2 nM

Question: With C[C@H]1C[C@H]1c1ccccc1-c1ncc2c(N3C[C@H]4CC[C@@H](C3)N4)nc(OCC34CCCN3CCC4)nc2c1F [Example 287, 4-((1R,5S)-3,8-diazabicyclo[3.2.1]octan-3-yl)-8-fluoro-2-((hexahydro-1H-pyrrolizin-7a-yl)methoxy)-7-(2-((1R,2S)-2-methylcyclopropyl)phenyl)pyrido[4,3-d]pyrimidine] as the compound, how does the IC50 read?
Answer: 90.7 nM

Question: Which IC50 does the source give for C[C@@H]1C[C@H]1c1ccccc1-c1ncc2c(N3C[C@H]4CC[C@@H](C3)N4)nc(OCC34CCCN3CCC4)nc2c1F [Example 288, 4-((1R,5S)-3,8-diazabicyclo[3.2.1]octan-3-yl)-8-fluoro-2-((hexahydro-1H-pyrrolizin-7a-yl)methoxy)-7-(2-((1R,2R)-2-methylcyclopropyl)phenyl)pyrido[4,3-d]pyrimidine] here?
Answer: 590 nM

Question: Which IC50 does the source give for C[C@H]1C[C@@H]1c1ccccc1-c1ncc2c(N3C[C@H]4CC[C@@H](C3)N4)nc(OCC34CCCN3CCC4)nc2c1F [Example 289, 4-((1R,5S)-3,8-diazabicyclo[3.2.1]octan-3-yl)-8-fluoro-2-((hexahydro-1H-pyrrolizin-7a-yl)methoxy)-7-(2-((1S,2S)-2-methylcyclopropyl)phenyl)pyrido[4,3-d]pyrimidine] here?
Answer: 218 nM

Question: With CC(C)c1c(F)cc(O)cc1-c1ncc2c(N3C[C@H]4CC[C@@H](C3)N4)nc(OC[C@@]34CCCN3C[C@H](F)C4)nc2c1F [Example 290, 3-(4-((1R,5S)-3,8-diazabicyclo[3.2.1]octan-3-yl)-8-fluoro-2-(((2R,7aS)-2-fluorotetrahydro-1H-pyrrolizin-7a(5H)-yl)methoxy)pyrido[4,3-d]pyrimidin-7-yl)-5-fluoro-4-isopropylphenol] as the compound, how does the IC50 read?
Answer: 2.1 nM
